Where a name gives a salt, the structure may show the parent alone.

With `Cc1cc(-c2cc(C(F)(F)F)nn2-c2ccc(S(N)(=O)=O)c(F)c2)ccc1-c1cscn1` (as salt: hydrochloride) [Example 113, 2-Fluoro-4-[5-[3-methyl-4-(1,3-thiazol-4-yl)phenyl]-3-(trifluoromethyl)-1H-pyrazol-1-yl]benzenesulfonamide], the melting point – broadly, the temperature of the solid-liquid transition – fell in the range of 125 to 127 °C.
In the case of `CS(=O)(=O)c1ccc(-n2nc(C(F)(F)F)cc2-c2ccc(-c3ccoc3)cc2)cc1F` [Example 85, 1-[3-Fluoro-4-(methylsulfonyl)phenyl]-5-[4-(3-furyl)phenyl]-3-(trifluoromethyl)-1H-pyrazole] it was 74 to 76 °C; in that of `Cc1cc(S(C)(=O)=O)ccc1-n1nc(C(F)(F)F)cc1-c1ccc(-c2ccco2)cc1` (as salt: hydrochloride) [Example 142, 5-[4-(2-Furyl)phenyl]-1-[4-(methylsulfonyl)-2-methylphenyl]-3-trifluoromethyl-1H-pyrazole], 205 °C.
In the case of `CS(=O)(=O)c1ccc(C2=C(c3ccc(-c4cccs4)cc3)C(=O)OC2)cc1` [Example 33, 3-[4-(2-Thienyl)phenyl]-4-[4-(methylsulfonyl)phenyl]-2-(5H)-furanone] it was 198 to 201 °C.

The values are drawn from patent US6949536B2, “Sulfonylbenzene compounds as anti-inflammatory/analgesic agents” (Pfizer, Inc., priority 1998, dated 2005).
